Measured values as given in US20150359913A1, “TETRAZINES/TRANS-CYCLOOCTENES IN SOLID PHASE SYNTHESIS OF LABELED PEPTIDES” (MEMORIAL SLOAN-KETTERING CANCER CENTER, priority 2013, published 2015).

What was measured:
[1] = system: subcutaneous SW1222 xenografts; assay: pre-targeted biodistribution: A33-TCO, 24 h later ^64Cu-Tz-Bn-NOTA; assay type: in vivo, mice; settings: for Biodistribution: Blood / Biodistribution: Bone / Biodistribution: Feces / Biodistribution: Heart / Biodistribution: Kidney / Biodistribution: Large intestine / Biodistribution: Liver / Biodistribution: Lung / Biodistribution: Muscle / Biodistribution: Skin / Biodistribution: Small intestine / Biodistribution: Spleen / Biodistribution: Stomach / Biodistribution: Tumor: A33-TCO (100 μg) 24 h before ^64Cu-Tz-Bn-NOTA; for uptake in all other tissues (not tumor, feces): generally
Description: Values are represented as % ID/g±SD. Mice (n=4) bearing subcutaneous SW1222 xenografts were administered huA33-TCO (100 μg) via tail vein injection. After 24 hours the same mice were administered ^64Cu-Tz-Bn-NOTA (0.55-0.75 MBq [15-20 μCi] via tail vein injection (t=0).
Following the synthesis and characterization of the components of the system, in vivo pre-targeted biodistribution and PET imaging experiments were performed. For the pre-targeted biodistribution experiments, mice bearing SW1222 xenografts were administered huA33-TCO (100 μg) via tail vein injection. After a 24 h interval, the mice were administered ^64Cu-Tz-NOTA via tail vein injection. The data reveal rapid accumulation and retention of activity in the tumor, with 4.1±0.3% ID/g at 1 h p.i and 4.2±0.3% ID/g at 12 h p.i. (Table 1). The compound is excreted through the feces, with high levels of activity at 1 h p.i. dropping to 0.9±0.1% ID/g at 12 h, and the amount of uptake in other tissues remains very low, generally less than 0.3% ID/g.
For the pre-targeted biodistribution experiments, mice bearing subcutaneous SW1222 xenografts were administered A33-TCO ([…]) via tail vein injection. […] The data reveal rapid accumulation and retention of radioactivity in the tumor, with 4.1±0.3 percent injected dose per gram (% ID/g) at 1 h after injection, 4.2±0.8% ID/g at 12 h, and 4.0±0.9% ID/g at 24 h (Table 1). The compound is excreted through the feces, with high levels of activity at 1 h after injection dropping to 2.5±0.1% ID/g at 12 h. The amount of uptake in all other tissues remains low, generally less than 1% ID/g.
The specificity of antibodies have made immunoconjugates promising vectors for the delivery of radioisotopes to cancer cells; however, their long pharmacologic half-lives necessitate the use of radioisotopes with long physical half-lives, a combination that leads to high radiation doses to patients. Therefore, the development of targeting modalities that harness the advantages of antibodies without their pharmacokinetic limitations is desirable. To this end, we report the development of a methodology for pre-targeted PET imaging based on the bioorthogonal Diels-Alder click reaction between tetrazine and transcyclooctene. A proof-of-concept system based on the A33 antibody, SW1222 colorectal cancer cells, and ^64Cu was used. The huA33 antibody was covalently modified with transcyclooctene, and a NOTA-modified tetrazine was synthesized and radiolabeled with ^64Cu. Pre-targeted in vivo biodistribution and PET imaging experiments were performed with athymic nude mice bearing A33 antigen-expressing, SW1222 colorectal cancer xenografts. The huA33 antibody was modified with transcyclooctene to produce a conjugate with high immunoreactivity, and the ^64Cu-NOTA-labeled tetrazine ligand was synthesized with greater than 99% purity and a specific activity of 9-10 MBq/mg. For in vivo experiments, mice bearing SW1222 xenografts were injected with transcyclooctene-modified A33; after allowing 24 h for accumulation of the antibody in the tumor, the mice were injected with 64Cu-NOTA-labeled tetrazine for PET imaging and biodistribution experiments. At 12 h after injection, the retention of uptake in the tumor ([…] percent injected dose per gram), coupled with the fecal excretion of excess radioligand, produced images with high tumor-to-background ratios. […] Conclusion: The high quality of the images produced by this pretargeting approach, combined with the ability of the methodology to dramatically reduce non-target radiation doses to patients, marks this system as a strong candidate for clinical translation.

[2] = in vitro stability of the radioligand in human serum at 37° C., HPLC; assay type: in vitro ADME
Description: (§1) The stability of the radioligand was assayed in vitro by incubation in human serum at 37° C. and subsequent HPLC analysis. The ^64Cu-Tz-Bn-NOTA remained relatively stable after 1 h, with 93.0%±2.5% intact. […] In addition, in vivo stability experiments were performed, and these produced similar results, although some acceleration in decomposition can be noted: 77%±3% of the ^64Cu-Tz-Bn-NOTA is intact in the blood after 60 min, followed by 47%±2% after 2 h and 22%±3% after 6 h. Although greater stability may be preferable, the speed of the cycloaddition reaction and the rapid pharmacokinetics of the radioligand led us to believe it unlikely that poor serum stability at later time points would limit the system.

[3] = in vivo stability of the radioligand in the blood
Description: as §1

A33 antigen (human) [4] = molecular target: A33 antigen (human) (UniProt Q99795); assay: immunoreactivity of the TCO-modified antibody (assay not described in this sentence)
A33 antigen (human) [5] = molecular target: A33 antigen (human) (UniProt Q99795); assay: immunoreactivity assay of the radiolabelled antibody (cells not given)
A33 antigen (human) [6] = molecular target: A33 antigen (human) (UniProt Q99795); assay: immunoreactivity assay with A33 antigen-expressing SW1222 human colorectal cancer cells, radiolabelled antibody

UniProt Q99795, sequence (Q99795 22-319): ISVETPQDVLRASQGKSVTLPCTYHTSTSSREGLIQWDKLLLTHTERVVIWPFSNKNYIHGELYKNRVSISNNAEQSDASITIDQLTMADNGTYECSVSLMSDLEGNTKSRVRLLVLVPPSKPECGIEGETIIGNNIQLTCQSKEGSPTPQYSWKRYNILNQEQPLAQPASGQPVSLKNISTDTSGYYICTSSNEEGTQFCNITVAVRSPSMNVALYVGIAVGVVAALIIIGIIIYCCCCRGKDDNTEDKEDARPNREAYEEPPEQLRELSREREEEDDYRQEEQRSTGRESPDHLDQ

In the case of `O=C([O-])CN1CCN(CC(=O)[O-])CC(Cc2ccc(NC(=O)CCCC(=O)NCc3ccc(-c4nncnn4)cc3)cc2)N(CC(=O)[O-])CC1.[64Cu+2]` (stereo not drawn) [^64Cu-Tz-Bn-NOTA], the “Biodistribution: Blood” value ([1]; 1 h) is reported as 3.5 ± 0.6 % ID/g, the “Biodistribution: Bone” value ([1]; 1 h) is reported as 0.3 ± 0.2 % ID/g and the “Biodistribution: Feces” value ([1]; 1 h) is reported as 11.9 ± 4.4 % ID/g. The “Biodistribution: Heart” value ([1]; 1 h) was 1.1 ± 0.2 % ID/g, the “Biodistribution: Kidney” value ([1]; 1 h) was 1.3 ± 0.1 % ID/g and the “Biodistribution: Large intestine” value ([1]; 1 h) was 0.5 ± 0.0 % ID/g. The “Biodistribution: Liver” value ([1]; 1 h) was 2.2 ± 0.3 % ID/g, the “Biodistribution: Lung” value ([1]; 1 h) was 1.6 ± 0.5 % ID/g and the “Biodistribution: Muscle” value ([1]; 1 h) was 0.2 ± 0.0 % ID/g. The “Biodistribution: Skin” value ([1]; 1 h) was 0.3 ± 0.1 % ID/g, the “Biodistribution: Small intestine” value ([1]; 1 h) was 0.0 ± 0.0 % ID/g and the “Biodistribution: Spleen” value ([1]; 1 h) was 0.6 ± 0.1 % ID/g. For the same compound, the “Biodistribution: Stomach” value ([1]; 1 h) was 0.5 ± 0.1 % ID/g, the “Biodistribution: Tumor” value ([1]; 1 h) was 4.1±0.3 % ID/g and the “Biodistribution: Tumor” value ([1]; 1 h, listed as 64Cu-Tz-NOTA) was 4.1±0.3 % ID/g. The “Biodistribution: Blood” value ([1]; 4 h) was 2.6 ± 0.8 % ID/g, the “Biodistribution: Bone” value ([1]; 4 h) was 0.3 ± 0.2 % ID/g and the “Biodistribution: Feces” value ([1]; 4 h) was 8.8 ± 3.4 % ID/g. The “Biodistribution: Heart” value ([1]; 4 h) was 0.9 ± 0.3 % ID/g, the “Biodistribution: Kidney” value ([1]; 4 h) was 0.9 ± 0.3 % ID/g and the “Biodistribution: Large intestine” value ([1]; 4 h) was 3.1 ± 1.1 % ID/g. For the same compound, the “Biodistribution: Liver” value ([1]; 4 h) was 1.3 ± 0.3 % ID/g, the “Biodistribution: Lung” value ([1]; 4 h) was 1.6 ± 0.4 % ID/g and the “Biodistribution: Muscle” value ([1]; 4 h) was 0.1 ± 0.0 % ID/g. For the same compound, the “Biodistribution: Skin” value ([1]; 4 h) was 0.3 ± 0.1 % ID/g, the “Biodistribution: Small intestine” value ([1]; 4 h) was 0.4 ± 0.1 % ID/g and the “Biodistribution: Spleen” value ([1]; 4 h) was 0.5 ± 0.2 % ID/g. The “Biodistribution: Stomach” value ([1]; 4 h) was 0.3 ± 0.1 % ID/g, the “Biodistribution: Tumor” value ([1]; 4 h) was 4.1 ± 0.6 % ID/g and the “Biodistribution: Blood” value ([1]; 12 h) was 2.3 ± 0.4 % ID/g. For the same compound, the “Biodistribution: Bone” value ([1]; 12 h) was 0.4 ± 0.1 % ID/g, the “Biodistribution: Feces” value ([1]; 12 h) was 2.5±0.1 % ID/g and the “Biodistribution: Heart” value ([1]; 12 h) was 0.9 ± 0.1 % ID/g. The “Biodistribution: Kidney” value ([1]; 12 h) was 0.9 ± 0.3 % ID/g, the “Biodistribution: Large intestine” value ([1]; 12 h) was 2.3 ± 1.0 % ID/g and the “Biodistribution: Liver” value ([1]; 12 h) was 0.9 ± 0.2 % ID/g. For the same compound, the “Biodistribution: Lung” value ([1]; 12 h) was 1.1 ± 0.4 % ID/g, the “Biodistribution: Muscle” value ([1]; 12 h) was 0.2 ± 0.0 % ID/g and the “Biodistribution: Skin” value ([1]; 12 h) was 0.4 ± 0.1 % ID/g. For the same compound, the “Biodistribution: Small intestine” value ([1]; 12 h) was 0.8 ± 0.5 % ID/g, the “Biodistribution: Spleen” value ([1]; 12 h) was 0.6 ± 0.3 % ID/g and the “Biodistribution: Stomach” value ([1]; 12 h) was 0.5 ± 0.6 % ID/g. The “Biodistribution: Tumor” value ([1]; 12 h) was 4.2±0.8 % ID/g, the “Biodistribution: Tumor” value ([1]; 12 h, listed as 64Cu-NOTA-labeled tetrazine) was 4.1±0.3 % ID/g and the “Biodistribution: Feces” value ([1]; 12 h, listed as 64Cu-Tz-NOTA) was 0.9±0.1 % ID/g. For the same compound, the “Biodistribution: Tumor” value ([1]; 12 h, listed as 64Cu-Tz-NOTA) was 4.2±0.3 % ID/g, the “tumor-to-muscle activity concentration ratio” value ([1]; 12 h, pre-targeting, A33-TCO 24 h before radioligand) was 26.6±6.6 and the “Biodistribution: Blood” value ([1]; 24 h) was 2.1 ± 0.5 % ID/g. The “Biodistribution: Bone” value ([1]; 24 h) was 0.3 ± 0.1 % ID/g, the “Biodistribution: Feces” value ([1]; 24 h) was 1.4 ± 0.5 % ID/g and the “Biodistribution: Heart” value ([1]; 24 h) was 0.8 ± 0.2 % ID/g. The “Biodistribution: Kidney” value ([1]; 24 h) was 0.7 ± 0.2 % ID/g, the “Biodistribution: Large intestine” value ([1]; 24 h) was 1.1 ± 0.4 % ID/g and the “Biodistribution: Liver” value ([1]; 24 h) was 1.1 ± 0.2 % ID/g. For the same compound, the “Biodistribution: Lung” value ([1]; 24 h) was 1.0 ± 0.3 % ID/g, the “Biodistribution: Muscle” value ([1]; 24 h) was 0.1 ± 0.0 % ID/g and the “Biodistribution: Skin” value ([1]; 24 h) was 0.5 ± 0.2 % ID/g. The “Biodistribution: Small intestine” value ([1]; 24 h) was 0.3 ± 0.0 % ID/g, the “Biodistribution: Spleen” value ([1]; 24 h) was 0.4 ± 0.1 % ID/g and the “Biodistribution: Stomach” value ([1]; 24 h) was 0.2 ± 0.0 % ID/g. The “Biodistribution: Tumor” value ([1]; 24 h) was 4.0±0.9 % ID/g, the “uptake in all other tissues (not tumor, feces)” value ([1]; pre-targeting) was “less than 1 % ID/g” and the “uptake in all other tissues (not tumor, feces)” value ([1]; pre-targeting, listed as 64Cu-Tz-NOTA) was “less than 0.3 % ID/g”. The radioligand intact ([2]; 1 h) was 93.0%±2.5%, the radioligand intact ([2]; 12 h) was 31.6%±6.1% and the “radioligand intact in the blood” value ([3]; 60 min) was 77%±3%. The “radioligand intact in the blood” value ([3]; 2 h) was 47%±2% and the “radioligand intact in the blood” value ([3]; 6 h) was 22%±3%.

“TCO-modified huA33 (huA33-TCO) (antibody)” gave an immunoreactivity (A33 antigen (human) [4]) of over 95%.

For “^64Cu-NOTA-A33 (A33-TCO reacted with ^64Cu-Tz-Bn-NOTA) (antibody)”, the immunoreactivity (A33 antigen (human) [5]) was over 95% and the immunoreactivity (A33 antigen (human) [6]) was 95.6%.

Work on ^89Zr-DFO-A33 (antibody) yielded an immunoreactivity (A33 antigen (human) [5]) of 92%.
